Experimental data from patent US10639345B2, “Compositions for preserving photoreceptor cells, retinal pigment epithelial cells, or visual function” (Massachusetts Eye and Ear Infirmary, priority 2010, dated 2020).
Where a SMILES comes first, the peptide text is derived from it. The star is where a group is joined. Cbz = O=C(OCc1ccccc1)*; CH2F = FC*

Legend:
RIP-1 = target: T1, RIP-1 (Rattus norvegicus, UniProt D3ZYL0); assay: RIP-1 phosphorylation after retinal detachment (RIP-1 immunoprecipitation, anti-phosphoserine Western blot); type: in vivo; conditions: two days after retinal detachment; subretinal Z-VAD 300 μM and/or Nec-1 400 μM at detachment
T1 construct: RIP-1 was immunoprecipitated from lysates of untreated retina and of retina treated with either vehicle, Nec-1, Z-VAD, or Nec-1+Z-VAD; from tissue; host or cells: retina (retinal lysates) of animals with experimental retinal detachment
T1 sequence (D3ZYL0 1-658): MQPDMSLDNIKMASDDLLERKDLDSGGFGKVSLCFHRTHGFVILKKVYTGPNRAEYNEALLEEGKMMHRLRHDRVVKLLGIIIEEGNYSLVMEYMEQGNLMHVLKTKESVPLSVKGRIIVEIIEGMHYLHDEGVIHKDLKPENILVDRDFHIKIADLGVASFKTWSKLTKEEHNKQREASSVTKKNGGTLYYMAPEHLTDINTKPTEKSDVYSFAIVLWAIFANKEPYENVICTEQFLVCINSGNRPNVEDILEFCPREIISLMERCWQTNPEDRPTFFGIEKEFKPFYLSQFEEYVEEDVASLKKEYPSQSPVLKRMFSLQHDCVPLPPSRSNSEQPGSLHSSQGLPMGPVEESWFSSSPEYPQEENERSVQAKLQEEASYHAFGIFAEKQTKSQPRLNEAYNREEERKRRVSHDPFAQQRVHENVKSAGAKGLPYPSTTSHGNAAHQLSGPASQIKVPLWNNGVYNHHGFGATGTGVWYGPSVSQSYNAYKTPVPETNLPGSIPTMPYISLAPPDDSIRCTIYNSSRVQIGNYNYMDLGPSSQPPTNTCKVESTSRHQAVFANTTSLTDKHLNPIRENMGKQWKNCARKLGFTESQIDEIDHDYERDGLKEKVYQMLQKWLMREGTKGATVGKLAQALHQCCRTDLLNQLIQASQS
Procedure: Equal amount of retinal lysates (1 mg) were incubated with 1 μg anti-RIP-1 antibody (BD Biosciences) and 20 μl of Protein A/G Agarose beads (Thermo Scientific, Rockford, Ill.) at 4° C. overnight. Beads were washed 5 times with lysis buffer and TBS, and the immunopellets were then subjected to Western blotting.
RIP-1 is phosphorylated at several serine residues in its kinase domain during programmed necrosis and Nec-1 inhibits this phosphorylation (Degterev (2008) supra; Cho Y et al. (2009) Cell 137:1100-1111). To investigate the role of RIP-1 kinase in retinal detachment-induced photoreceptor death, the phosphorylation status of RIP-1 was first assessed by immunoprecipitating RIP-1 from the retina (FIG. 3A) and then blotting with an anti-phosphoserine antibody. RIP-1 was immunoprecipitated from retinal lysates. One mg of retinal lysates were incubated with anti-RIP-1 antibody and Protein A/G agarose beads. Extracts before (Pre) and after (Post) immunoprecipitation and the immunopellets (IP) were run on a 4-12% SDS-PAGE and blotted with anti-RIP-1 antibody. […]
To determine the effect of Nec-1 and a pan-caspase inhibitor on the phosphorylation of RIP-1, Z-VAD (300 μM) and/or a Nec-1 compound of Formula I-C (400 μM) were injected subretinally in the animal at the time of retinal detachment induction. […] Phosphorylation of RIP-1 was then assessed by Western blot analysis. […]

photoreceptors [1] = assay: Normalized ONL thickness ratio after experimental retinal detachment; type: in vivo, rat; conditions: subretinal Z-VAD 300 μM and/or Nec-1 400 μM
Procedure: Photoreceptor death was also assessed by TUNEL analysis at three days after retinal detachment in retina treated with either vehicle, Nec-1, Z-VAD or Nec-1+Z-VAD. […] Nine sections for each eye specimen were randomly selected, and the central area of detached retina and the mid-peripheral region of attached retina were photographed. The ONL thickness ratio was measured at ten points in each section by masked observers. […] (GCL: ganglion cell layer, INL: inner nuclear layer. *, P<0.05. Scale bar, 100 μm). […]
TNF-α protein contents in rat retina were determined using ELISA Kit for rat TNF-α (Invitrogen, Carlsbad, Calif.). Goat anti-mouse/rat TNF-α blocking antibody was purchased from R&D Systems (Minneapolis, Minn.). The rat eyes were subretinally injected with 1% of sodium hyaluronate containing 0.1 mg/ml of anti-TNF-α antibody or control antibody.

photoreceptors [2] = assay: In vivo PI labeling of photoreceptors after retinal detachment in RIP-3−/− retinas; design: species or system RIP-3−/− mice; conditions: day 3 after retinal detachment
Procedure: In vivo propidium iodide (PI) staining was performed by injecting 5 μl of PI (50 μg/ml) into the subretinal space three days after retinal detachment. After two hours, the eyes were enucleated and 10 μm thick cryosections were cut, air-dried, and fixed in 100% ethanol. DAPI was used to counterstain the nuclei. The center of the detached retina was photographed by fluorescence microscope, and the number of PI-positive cells in ONL was analyzed by ImageJ software.
FIG. 8C-D show PI staining (FIG. 8C) and quantification of PI-positive photoreceptors (FIG. 8D) on day 3 after retinal detachment in retina treated with vehicle, Z-VAD or Nec-1 (a Nec-1 of Formula I-C) and Z-VAD in RIP-3−/− retina (n=5-6; C and D). *, P<0.05; **, P<0.01. Scale bar, 100 μm.

Structure (SMILES): COC(=O)CC(NC(=O)C(C)NC(=O)C(NC(=O)OCc1ccccc1)C(C)C)C(=O)CF (stereo not drawn) [Z-VAD, Benzyloxycarbonyl-Val-Ala-Asp(OMe)-fluoromethylketone] (Cbz-Val-Ala-Asp(OMe)-CH2F; configuration not given here)
- RIP-1 phosphorylation (RIP-1): elevated
- normalized ONL thickness ratio (photoreceptors [1]; five days after retinal detachment): 0.54±0.10
- normalized ONL thickness ratio (photoreceptors [1]; three days after retinal detachment): 0.72±0.08
- number of photoreceptors with disrupted plasma membrane (in vivo PI-labeling) (photoreceptors [2]): not increased
